The values that follow come from PMC9866601, “Constituents of Pulicaria inuloides and Cytotoxic Activities of Two Methoxylated Flavonols” (Molecules, 2023).

Where two headings read alike, the source gives them in different places. Where only a bound is given, the exact number is not on record here.

Broadly, the IC50 is the concentration at which inhibition is half-maximal.

One series relates to HeLa cells. More on the design: method as in PMID 30673162. The note with it: in vitro; cited from earlier work.
Another series has as its system A549 cells. More on the design: method as in PMID 30673162. The note with it: in vitro; cited from earlier work.
In a further series the test system is cholinesterase. More on the design: method as in PMID 30673162. Conditions: cited from earlier work.
A further series relates to PNT-2 cells. Description: MTT cytotoxicity assay, normal prostate epithelial cells PNT-2. Format: cell-based. The note with it: Homo sapiens, PNT2. As for the experimental part: (§1) Cytotoxic activity was tested on human cancer and normal cells, namely: prostate cancer cell lines DU145 (ATCC HTB-81) and PC3 (ATCC CRL-1435), prostate epithelial cells PNT-2 (ECACC 95012613), melanoma cell lines A375 (ATCC CRL-1619) and HTB140 (ATCC Hs 294T) and skin keratinocytes HaCaT (obtained as a kind gift from prof. Marta Michalik, Department of Cell Biology, Jagiellonian University). DU145 cells were grown in a modified Eagle’s medium with a low (1.0 g/L) glucose concentration, as well as PC3 and PNT-2 cells in Dulbecco’s modified Eagle’s media: F12 HAM nutrient mixture. At the same time, melanoma cells and keratinocytes were maintained in a modified Eagle’s medium with a high (4.5 g/L) glucose concentration. The culture media (all supplied by Sigma-Aldrich Co.; St. Louis, MO, USA) contained antibiotics and 10% fetal bovine serum (FBS). All cultures were maintained at 37 °C in a humidified 5% CO2-containing atmosphere.
(§2) The examined flavonols were diluted in the culture media from freshly made stock solutions in MeOH (10 mg/mL) to the working concentrations (from 5 to 100 μg/mL).
(§3) Cells were seeded in 96-well plates (1.5 × 10^4 cells/well) and preincubated for 24 h (37 °C, 5% CO2). Then, the culture medium was replaced with a fresh medium containing different concentrations of the tested compounds (5–100 µg/mL). The incubation lasted 48 h. Cell viability was measured by an MTT assay, as previously described. The absorbance at 490 nm was measured using a Synergy II Biotek (BioTek Instruments, Winooski, VT, USA) microplate reader. Cytotoxic activity was assessed based on the cell viability expressed as the percentage of living cells. The results were the means of three independent measurements (±SD). Doxorubicin (Ebewe Pharma GmbH., Unterach, Austria) was used as a reference cytostatic drug. The IC50 values were determined by plotting the percentage viability of the cells versus the concentration and adequate calculations made using either Excel or the AAT Bioquest website program (https://www.aatbio.com/tools/ic50-calculator, accessed on 4 September 2022).
Background: Formazan colour is commonly taken as a measure of viable cells.

For the next series, the system named is DU145 cells. Description: MTT cytotoxicity assay, prostate cancer cells DU145. The class given is cell-based. The note with it: Homo sapiens, DU-145. As for the experimental part:
as §1, §2, §3

The next series has as its system PC3 cells. Description: MTT cytotoxicity assay, prostate cancer cells PC3. The class given is cell-based. Conditions: Homo sapiens, PC-3, 48 h, 48 h treatment. As for the experimental part:
as §1, §2, §3

A further series concerns HaCaT cells. Description: MTT cytotoxicity assay, skin keratinocytes HaCaT. Format: cell-based, human. Conditions: for IC50: Homo sapiens, HaCaT. As for the experimental part:
as §1, §2, §3

For another series, the system named is A375 cells. Description: MTT cytotoxicity assay, melanoma cells A375. The class given is cell-based, human. Conditions: for IC50: Homo sapiens, A-375. As for the experimental part: as §1, §2, §3
The subject of another series is HTB140 cells. Description: MTT cytotoxicity assay, melanoma cells HTB140. Format: cell-based, human. Conditions: for IC50: Homo sapiens. As for the experimental part: as §1, §2, §3
Where [1] appears, read: 48 h treatment, 5–100 μg/mL, MTT, read-out: IC50 PNT-2.
Setting [2] is: 48 h treatment, 5–100 μg/mL, MTT, read-out: IC50 DU145.
Where [3] appears, read: 48 h treatment, 5–100 μg/mL, MTT, read-out: IC50 HaCaT.
The mark [4] stands for this setting: 48 h treatment, 5–100 μg/mL, MTT, read-out: IC50 A375.
[5] abbreviates: 48 h treatment, 5–100 μg/mL, MTT, read-out: IC50 HTB140.

Take `C=C1CC/C=C(/CO)C(=O)C[C@@H]2[C@@H]1CC2(C)C` [Compound 8, (1S,9R)-14-hydroxycaryophyll-5(6)-en-7-one]: in the series with HeLa cells, the “cytotoxic activity against HeLa cells” value is listed as “moderate cytotoxic activity”. For the same compound, the “cytotoxic activity against A549 cells” value in the series with A549 cells is listed as “moderate cytotoxic activity”. Further, the anticholinesterase activity result with cholinesterase was “weak anticholinesterase activity”.

As for `C=C1CC/C=C(/CO)C(=O)C[C@@H]2[C@@H]1C[C@]2(C)COC(C)=O` [Compound 9, (1S,9R)-12β-acetoxy-14-hydroxycaryophyll-5(6)-en-7-one], in the series with HeLa cells, the “cytotoxic activity against HeLa cells” value was “moderate cytotoxic activity”. Besides, in the series with A549 cells, the “cytotoxic activity against A549 cells” value was “moderate cytotoxic activity”. The anticholinesterase activity result in the series on cholinesterase was “weak anticholinesterase activity”.

For `COc1cc(-c2oc3cc(OC)c(O)c(O)c3c(=O)c2OC)ccc1O` [Compound 11, quercetagetin 3,7,3′-trimethyl ether], the IC50 is 82.4 ± 2.42 µg/mL in the series with PNT-2 cells (setting [1]); more than 150 µM in the series with PNT-2 cells (abstract, value in µM, read-out: IC50 PNT2 (remaining cell lines)); 54.87 ± 0.23 µg/mL with DU145 cells (setting [2]); more than 150 µM in the series with DU145 cells (abstract, value in µM, read-out: IC50 DU145 (remaining cell lines)); 16.8 ± 0.77 µg/mL in the series with PC3 cells (5–100 μg/mL); 46.6 µM with PC3 cells (value in µM). In addition, the 50% inhibitory concentration (IC50) in the series with HaCaT cells (setting [3]) is more than 100 µg/mL; with HaCaT cells (abstract, value in µM, read-out: IC50 HaCaT (remaining cell lines)) it was more than 150 µM; in the series with A375 cells (setting [4]) it was more than 100 µg/mL; in the series with A375 cells (abstract, value in µM, read-out: IC50 A375 (remaining cell lines)), more than 150 µM; in the series with HTB140 cells (setting [5]), more than 100 µg/mL; in the series with HTB140 cells (abstract, value in µM, read-out: IC50 HTB140 (remaining cell lines)), more than 150 µM. Also, the “cytotoxic activity toward keratinocytes” value in the series on HaCaT cells (dose range of 5–100 μg/mL) is “not active”. In the series with A375 cells (dose range of 5–100 μg/mL), the “cytotoxic activity toward melanoma cells (A375)” value is given as “not active”. The “cytotoxic activity toward melanoma cells (HTB140)” value in the series with HTB140 cells (dose range of 5–100 μg/mL) is “not active”.

In the case of `COc1cccc2c1C(=O)c1c(O)c3c(c(O)c1C2=O)C[C@@](O)(C(=O)CO)C[C@@H]3O[C@H]1C[C@H](N)[C@H](O)[C@H](C)O1` [Doxorubicin, reference compound], the IC50 in the series on PNT-2 cells (setting [1]) was 1.38 µg/mL; with DU145 cells (setting [2]), 3.18 µg/mL; with PC3 cells (5–100 μg/mL), more than 50 µg/mL; in the series on HaCaT cells (setting [3]), 4.68 µg/mL; with A375 cells (setting [4]), 0.59 µg/mL; in the series with HTB140 cells (setting [5]) it was 5.71 µg/mL.
